The record followed here is publication PMC10913484, “Hydroxyhexylitaconic acids as potent IMP-type metallo-β-lactamase inhibitors for controlling carbapenem resistance in Enterobacterales” (Microbiology Spectrum, 2024).

The MIC is the lowest concentration found to suppress growth. By IC50 is commonly meant the concentration at which inhibition is half-maximal.

Assay [1] concerns E. coli DH5α pBC-VIM-2. Kind of assay: Susceptibility test (microdilution), transformant. Format: cell-based. As to the method: (§1) Susceptibility testing, based on the microdilution method, was performed according to the guidelines of the Clinical and Laboratory Standards Institute ([36]).
Assay [2] addresses T1, IMP-1 (Serratia marcescens, UniProt P52699).
T1 construct: made in house
Format: binding. The settings on record: DSF; control protein 52.5°C. The procedure: The DSF assay was performed using the Protein Thermal Shift Dye Kit (Thermo Fisher Scientific) and StepOnePlus Real-Time PCR Systems (Applied Biosystems) as follows: 2 µL of IMP-1 enzyme (100 µM), 1 µL of EDTA or HHIA solution (5 mM), 2.5 µL of diluted Protein Thermal Shift Dye (32×), 5 µL of Protein Thermal Shift buffer, and 9.5 µL of water were mixed in a test tube and incubated for 15 min at 4°C. Four replicates of each sample were performed. The fluorescence was monitored at 0.7°C increments from 4°C to 99°C. The relative fluorescence units were fitted with the Boltzmann equation using the TSA-CRAFT software to determine the melting point (Tm) ([47]).

For assay [3], the target named is T1, IMP-1. Format: biochemical. The following applies: IMP-1 with agent (5 mM stock), dialysis. The procedure:
A total of 5 µL of IMP-1 (100 µM) and 2 µL of EDTA (5 mM) or HHIA (5 mM) were mixed in 100 µL of 20 mM HEPES buffer (pH 7.5) pretreated with Chelex 100 resin (Bio-Rad) and incubated on ice for 30 min. The samples were dialyzed against ultrapure water at 4°C for 6 h using Slide-A-Lyzer Dialysis Cassettes (cutoff, 3.5 K) (Thermo Fisher Scientific) and treated with proteinase K (FUJIFILM Wako Pure Chemical Corporation) at 37°C for 1 h. The zinc concentration in the samples was determined using a Zinc Assay Kit (MG Metallogenics).

Assay [4] has as its system E. cloacae NUBL-5 (IMP-1). The assay can be described thus: Susceptibility test, clinical isolate. Type of assay: cell-based. The settings on record: Enterobacter cloacae. As to the method:
as §1

Assay [5] relates to K. pneumoniae AR0034 (IMP-4). Kind of assay: Susceptibility test, clinical isolate. The settings on record: Klebsiella pneumoniae, K. pneumoniae AR0034 (IMP-4). Format: cell-based. As to the method: as §1
Assay [6] has as its system E. coli NUBL-22 (IMP-6). Kind of assay: Susceptibility test, clinical isolate. Type of assay: cell-based. The settings on record: Escherichia coli. As to the method: as §1
Assay [7] concerns K. pneumoniae NUBL-8 (IMP-1). Kind of assay: Susceptibility test, clinical isolate. The following applies: Klebsiella pneumoniae. Type of assay: cell-based. The procedure:
as §1

For assay [8], the system named is K. pneumoniae NUBL-23 (IMP-6). Kind of assay: Susceptibility test, clinical isolate. The following applies: Klebsiella pneumoniae. Type of assay: cell-based. As to the method: as §1
Assay [9] has as its system K. pneumoniae MS5674 (NDM-1/VIM-1). The assay can be described thus: Susceptibility test, clinical isolate. Type of assay: cell-based. The settings on record: Klebsiella pneumoniae. The procedure: as §1
Assay [10] concerns P. penneri E11-M475 (IMP-1). The assay can be described thus: Susceptibility test, clinical isolate. The following applies: Proteus penneri. Type of assay: cell-based. As to the method:
as §1

Assay [11] deals with K. pneumoniae AR0076 (VIM-1). Kind of assay: Susceptibility test, clinical isolate. The settings on record: Klebsiella pneumoniae. Format: cell-based. The procedure:
as §1

The test system of assay [12] is K. oxytoca NUBL-827 (IMP-1). Kind of assay: Susceptibility test, clinical isolate. Format: cell-based. The settings on record: Klebsiella oxytoca. The procedure:
as §1

For assay [13], the system named is E. coli 465 (IMP-1). Kind of assay: Susceptibility test, clinical isolate. Type of assay: cell-based. The following applies: Escherichia coli. As to the method: as §1
For assay [14], the system named is E. coli 426 (IMP-1). Kind of assay: Susceptibility test, clinical isolate. Type of assay: cell-based. The settings on record: Escherichia coli. The procedure: as §1
In assay [15] the test system is E. coli NUBL-24 (IMP-1). The assay can be described thus: Susceptibility test, clinical isolate. Type of assay: cell-based. The settings on record: E. coli NUBL-24 (IMP-1); for MIC: Escherichia coli. The procedure: as §1
The target in assay [16] is T1, IMP-1. The assay can be described thus: In vitro inhibition assay (IPM hydrolysis). Type of assay: biochemical. The following applies: read-out: IC50 for IMP-1. As to the method: MBLs were incubated with HHIAs in 20 mM HEPES buffer (pH 7.5) containing 200 mM NaCl and 50 µg/mL BSA at 30°C for 5 min. IPM was added at a concentration of 100 µM, and the rate of IPM hydrolysis was monitored at 297 nm. The initial velocity (v0) rates were plotted against HHIA’s logarithmic concentrations, and the data were fitted to a four-parameter variable slope to obtain the half-maximal inhibitor concentration (IC50) values using GraphPad Prism 9 software (GraphPad Software). The inhibition constant (Ki) was determined as follows: v0 was measured after varying the concentrations of IPM and HHIAs, and inverse v0 (1/v0) was plotted against the inverse IPM concentration [1/(IPM)]. Lineweaver–Burk plots were created to obtain Ki values under the competitive inhibition model using the SigmaPlot 14 suite (Hulinks).

The test system of assay [17] is E. coli DH5α pBC-IMP-1. The assay can be described thus: Susceptibility test (microdilution), transformant. Type of assay: cell-based. The procedure:
as §1
(In general: Dilution methods test growth across graded concentrations, often in twofold steps.)

The subject of assay [18] is E. coli DH5α pCL-SMB-1. The assay can be described thus: Susceptibility test (microdilution), transformant. The following applies: E. coli DH5α pCL-SMB-1. Format: cell-based. The procedure: as §1
Assay [19] concerns E. coli DH5α pBC-NDM-1. Kind of assay: Susceptibility test (microdilution), transformant. The settings on record: E. coli DH5α pBC-NDM-1. Format: cell-based. As to the method:
as §1

In assay [20] the test system is IMP-1-producing E. coli NUBL-24. The assay can be described thus: Time-killing assay. The following applies: MPM 1 µg/mL alone. Type of assay: cell-based. The procedure:
The initial density of IMP-1-producing E. coli NUBL-24 (MPM MIC, 8 µg/mL) was adjusted to approximately 5 × 10^6 colony-forming units (cfu)/mL. Either MPM (1 µg/mL) or 9-HHIA/10-HHIA (50 µg/mL) alone or a combination of the two was added to the bacterial solution, and then incubation was performed at 37°C. LB broth containing bacteria alone was used as a control. At 0, 2, 4, 8, and 12 h after adding the agents, an aliquot of the bacterial culture was removed, diluted, and spotted on LB agar plates to count the viable bacterial cells. The detection limit was set at 333 cfu/mL.

The mark [21] stands for this setting: IPM alone (Control), read-out: IPM MIC.
[22] abbreviates: MPM alone (Control), read-out: MPM MIC.

≈ marks a conversion by molar mass, not a printed value. Read-outs that look alike come from different tables or passages of the source.

T1 sequence (P52699 19-246, looked up, species assumed): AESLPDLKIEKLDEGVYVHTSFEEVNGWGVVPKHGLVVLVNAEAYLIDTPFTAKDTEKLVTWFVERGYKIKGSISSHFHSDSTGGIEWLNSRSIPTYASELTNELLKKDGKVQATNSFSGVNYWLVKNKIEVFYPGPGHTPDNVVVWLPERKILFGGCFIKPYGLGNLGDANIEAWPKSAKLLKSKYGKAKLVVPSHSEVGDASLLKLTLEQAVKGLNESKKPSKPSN

Turning to `CC(C)(O/N=C(\C(=O)N[C@@H]1C(=O)N2C(C(=O)[O-])=C(C[n+]3ccccc3)CS[C@H]12)c1csc(N)n1)C(=O)O` [CAZ, ceftazidime], in [1] (Escherichia coli, read-out: CAZ MIC, CAZ alone (Control)), the minimum inhibitory concentration (MIC) was in the range of 4 to 8 µg/mL (≈ 7.32 to 14.6 µM).
`O=C(O)CN(CCN(CC(=O)O)CC(=O)O)CC(=O)O` [EDTA, reference compound]: the “Melting temperature (Tm) of treated IMP-1” value in assay [2] was found to be 43.4 °C. In addition, in assay [3], the “Zinc ions in IMP-1 after treatment” value is recorded as “completely lost”.
For `C[C@@H](O)[C@H]1C(=O)N2C(C(=O)O)=C(SCCN=CN)C[C@H]12` [IPM, imipenem, reference compound], the MIC in assay [4] (setting [21]) was 8 µg/mL (≈ 26.7 µM); in assay [5] (setting [21]), 4 µg/mL (≈ 13.4 µM); in assay [6] (setting [21]), 2 µg/mL (≈ 6.68 µM); in assay [7] (setting [21]), 4 µg/mL (≈ 13.4 µM); in [8] (setting [21]), 1 µg/mL (≈ 3.34 µM); in [9] (setting [21]) it was 32 µg/mL (≈ 107 µM). Also, the minimum inhibitory concentration (MIC) in assay [10] (setting [21]) was over 64 µg/mL; in [11] (setting [21]) it was 32 µg/mL (≈ 107 µM); in assay [12] (setting [21]), 16 µg/mL (≈ 53.4 µM); in assay [13] (setting [21]), 32 µg/mL (≈ 107 µM); in assay [14] (setting [21]) it was 8 µg/mL (≈ 26.7 µM); in assay [15] (setting [21]), 8 µg/mL (≈ 26.7 µM).
On to `C=C(CC(=O)O)C(=O)O` [Itaconic acid, itaconic acid], for which the 50% inhibitory concentration (IC50) in assay [16] is over 1 mM. Besides, the “MPM MIC” value in [17] (+agent 6.25 μg/mL) came out at 1 µg/mL; in [17] (+agent 25 μg/mL) it was 1 µg/mL; in [17] (+agent 100 μg/mL) it was 1 µg/mL; in [18] (+agent 6.25 μg/mL), 32 µg/mL; in assay [18] (+agent 25 μg/mL), 32 µg/mL; in [18] (+agent 100 μg/mL), 32 µg/mL. Also, the “MPM MIC” value in assay [19] (+agent 6.25 μg/mL), in assay [19] (+agent 25 μg/mL) and in assay [19] (+agent 100 μg/mL) was over 64 µg/mL each time. Further, the “CAZ MIC” value in assay [1] (+agent 6.25 μg/mL), in assay [1] (+agent 25 μg/mL) and in assay [1] (+agent 100 μg/mL) was 8 µg/mL throughout.
As for `C[C@@H](O)[C@H]1C(=O)N2C(C(=O)O)=C(S[C@@H]3CN[C@H](C(=O)N(C)C)C3)[C@H](C)[C@H]12` [MPM, meropenem, reference compound], the MIC in assay [17] (Escherichia coli, read-out: MPM MIC, MPM alone (Control)) amounted to 1 µg/mL (≈ 2.61 µM); in assay [4] (setting [22]), 16 µg/mL (≈ 41.7 µM); in [5] (setting [22]) it was 8 µg/mL (≈ 20.9 µM); in [6] (setting [22]), 32 µg/mL (≈ 83.4 µM); in [7] (setting [22]) it was 16 µg/mL (≈ 41.7 µM); in assay [8] (setting [22]), 64 µg/mL (≈ 167 µM). The MIC was over 64 µg/mL in [9] (setting [22]); over 64 µg/mL in assay [10] (setting [22]); 32 µg/mL (≈ 83.4 µM) in assay [11] (setting [22]); 32 µg/mL (≈ 83.4 µM) in assay [12] (setting [22]); 32 µg/mL (≈ 83.4 µM) in assay [13] (setting [22]); 16 µg/mL (≈ 41.7 µM) in assay [14] (setting [22]). The MIC in [15] (setting [22]) turned out to be 8 µg/mL (≈ 20.9 µM). Moreover, the “MPM MIC” value came out at 1 µg/mL in assay [17] (MPM alone (Control)) and 8 µg/mL in assay [15] (MPM alone (Control)). For the same compound, in [20], the “Time-kill: MPM alone” value is “regrew close to the control level at 12 h”.
